The text below walks through data of PubChem BioAssay (NCI).

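Following 48 hours of exposure in 96-well plates, responses at five concentrations were used to interpolate endpoints linearly. TGI: concentration producing complete growth inhibition.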

Among the test systems are 786-0 renal; A549 NSCLC; CCRF-CEM leukemia; DU-145 prostate; EKVX NSCLC; HCC-2998 colon; HOP-62 NSCLC; LOX IMVI melanoma; MDA-N; NCI-H23 lung; NCI-H522 lung; RXF 393 renal; SF-268 CNS; SF-295 CNS; SF-539 CNS; SK-OV-3 ovarian; SNB-19 CNS; SNB-75 CNS; TK-10 renal; U251 CNS.
Common to all, as to test: NCI anticancer screen, dose series, 48 h

For `COc1cc2c(cc1OC)C1CCc3ccccc3CN1CC2` (stereo not given), the TGI in the assay with 786-0 renal, in the assay with A549 NSCLC, in the assay on CCRF-CEM leukemia, in the assay with DU-145 prostate, in the assay on EKVX NSCLC and in the assay on HCC-2998 colon was over 100 µM in each case. In addition, the TGI in the assay with HOP-62 NSCLC, with LOX IMVI melanoma, with MDA-N, with NCI-H23 lung, with NCI-H522 lung and in the assay on RXF 393 renal was over 100 µM each time. The TGI in the assay with SF-268 CNS, with SF-295 CNS, with SF-539 CNS, in the assay on SK-OV-3 ovarian, with SNB-19 CNS and in the assay with SNB-75 CNS was over 100 µM in each case. In addition, the TGI in the assay on TK-10 renal and in the assay on U251 CNS was over 100 µM in each case.

For the molecule `S=C(N/N=C(/c1ccccc1)c1ccccn1)Nc1ccc(Cl)cc1`, the TGI in the assay on 786-0 renal worked out at 12.3 µM; in the assay on A549 NSCLC it was 14 µM; with CCRF-CEM leukemia it was 2.26 µM; with DU-145 prostate, 11.6 µM; with EKVX NSCLC, 15.5 µM; in the assay on HCC-2998 colon it was 10.9 µM. The TGI was found to be 16.6 µM in the assay on HOP-62 NSCLC; 7.49 µM in the assay with LOX IMVI melanoma; 9.57 µM in the assay with MDA-N; 22.6 µM in the assay with NCI-H23 lung; 11.5 µM in the assay on NCI-H522 lung; 7.87 µM in the assay on RXF 393 renal. Also, the TGI in the assay on SF-268 CNS is 15.5 µM; with SF-295 CNS it was 11.3 µM; in the assay with SF-539 CNS, 8.55 µM; in the assay with SK-OV-3 ovarian, 6.81 µM; in the assay with SNB-19 CNS it was 20.7 µM; in the assay on SNB-75 CNS, 8.84 µM. For the same molecule, the values for the TGI in the assay on TK-10 renal and in the assay with U251 CNS were 8.3 µM and 12.4 µM, respectively.

Regarding `COc1cc2nc(-c3ccccc3F)[nH]c(=O)c2cc1OC`, the TGI in the assay on 786-0 renal, in the assay with A549 NSCLC, with CCRF-CEM leukemia, with DU-145 prostate, in the assay on EKVX NSCLC and with HCC-2998 colon was over 100 µM in each case. In addition, the TGI in the assay with HOP-62 NSCLC, with LOX IMVI melanoma, in the assay on MDA-N, in the assay with NCI-H23 lung, with NCI-H522 lung and in the assay on RXF 393 renal was over 100 µM in each case. In addition, the TGI with SF-268 CNS, in the assay on SF-295 CNS, in the assay on SK-OV-3 ovarian, in the assay on SNB-19 CNS, in the assay on SNB-75 CNS and in the assay on TK-10 renal was over 100 µM each time.

For `CN(C)c1nc(=NCc2cccs2)ss1`, the TGI was over 10 µM in the assay on 786-0 renal; over 10 µM in the assay with A549 NSCLC; 1.83 µM with CCRF-CEM leukemia; over 10 µM in the assay on DU-145 prostate; over 10 µM with EKVX NSCLC; over 10 µM in the assay with HCC-2998 colon. Besides, the TGI in the assay with HOP-62 NSCLC is over 10 µM; in the assay with LOX IMVI melanoma it was over 10 µM; in the assay with MDA-N, over 10 µM; in the assay with NCI-H23 lung, over 10 µM; with NCI-H522 lung it was 9.57 µM; with RXF 393 renal, over 10 µM. The TGI in the assay on SF-268 CNS, in the assay with SF-295 CNS, in the assay with SF-539 CNS, in the assay on SK-OV-3 ovarian, with SNB-19 CNS and in the assay on SNB-75 CNS was over 10 µM throughout. In addition, the TGI with TK-10 renal and in the assay with U251 CNS was over 10 µM throughout.

Take `Cc1cc(S(=O)(=O)NC2=NC(c3ccccc3)c3ccccc3N2)c(S)cc1Cl` (stereo not given): the TGI with 786-0 renal, in the assay on A549 NSCLC, in the assay with CCRF-CEM leukemia, in the assay with DU-145 prostate, with EKVX NSCLC and in the assay on HCC-2998 colon was over 100 µM in each case. In addition, the TGI in the assay with HOP-62 NSCLC, in the assay on LOX IMVI melanoma, in the assay on MDA-N, in the assay on NCI-H23 lung, in the assay with NCI-H522 lung and in the assay with RXF 393 renal was over 100 µM in each case. Besides, the TGI in the assay with SF-268 CNS, with SF-295 CNS, in the assay with SF-539 CNS, in the assay with SK-OV-3 ovarian, in the assay with SNB-19 CNS and in the assay with SNB-75 CNS was over 100 µM in each case. Besides, the TGI in the assay with TK-10 renal and in the assay with U251 CNS was over 100 µM throughout.

Consider `CC(C)(C)OC(=O)NC(Cc1ccc(OCc2ccccc2)cn1)C(=O)NCc1ccccc1` (stereo not given), for which the TGI in the assay with 786-0 renal is over 100 µM; in the assay with A549 NSCLC, over 100 µM; in the assay on CCRF-CEM leukemia, 43.5 µM; with DU-145 prostate it was over 100 µM; with EKVX NSCLC, 99.3 µM; in the assay with HCC-2998 colon, over 100 µM. For the same molecule, the TGI with HOP-62 NSCLC is 56.1 µM; with LOX IMVI melanoma, 39.4 µM; with MDA-N, 43.8 µM; with NCI-H23 lung, 47.3 µM; with NCI-H522 lung it was 47.1 µM; with RXF 393 renal, over 100 µM. In addition, the TGI in the assay on SF-268 CNS is 75 µM; with SF-295 CNS it was 51.6 µM; with SK-OV-3 ovarian it was 51.6 µM; in the assay on SNB-19 CNS, over 100 µM; in the assay on SNB-75 CNS it was 78.5 µM; in the assay with TK-10 renal, over 100 µM. The molecule also came in with a TGI in the assay with U251 CNS of over 100 µM.

Consider `CCN(CC)CCOC(=O)CCN1CC2CCC(CC2)C1`, for which the TGI in the assay on 786-0 renal, with A549 NSCLC, in the assay on CCRF-CEM leukemia, in the assay with DU-145 prostate, in the assay with EKVX NSCLC and in the assay on HCC-2998 colon was over 100 µM in each case. Moreover, the TGI with LOX IMVI melanoma, in the assay on MDA-N, in the assay with NCI-H23 lung, in the assay with NCI-H522 lung, in the assay with RXF 393 renal and in the assay on SF-295 CNS was over 100 µM in each case. The TGI in the assay with SF-539 CNS, in the assay with SK-OV-3 ovarian, in the assay with SNB-19 CNS, with SNB-75 CNS, in the assay with TK-10 renal and in the assay on U251 CNS was over 100 µM throughout.
